Assay results reported in paper PMC10663540, “Structure-based discovery of dual pathway inhibitors for SARS-CoV-2 entry” (Nature Communications, 2023).
“And” between values parts separate entries of the source, which are not always exact repeats. Identical values can stand only once. Like-named read-outs stand apart in the source and are kept apart here.

Assays:
[1] = system: Calu-3 cells; details: rep1-rep3
[2] = system: SARS-CoV-2; type: cell-based; details: Supplementary Fig. 7b
[3] = in vitro; details: human
[4] = target: TMPRSS2 (Homo sapiens, UniProt O15393); experiment: biochemical; type: biochemical
Chain of TMPRSS2 (O15393 256-492): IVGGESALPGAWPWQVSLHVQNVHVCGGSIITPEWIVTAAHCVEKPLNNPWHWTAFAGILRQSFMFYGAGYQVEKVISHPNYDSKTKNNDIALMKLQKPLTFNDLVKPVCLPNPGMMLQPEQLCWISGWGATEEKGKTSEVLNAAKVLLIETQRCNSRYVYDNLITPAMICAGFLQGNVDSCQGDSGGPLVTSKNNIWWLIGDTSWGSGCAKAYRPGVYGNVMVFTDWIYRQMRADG
Chain of TMPRSS2 (O15393 other isoform, or with tags, fused parts or gaps): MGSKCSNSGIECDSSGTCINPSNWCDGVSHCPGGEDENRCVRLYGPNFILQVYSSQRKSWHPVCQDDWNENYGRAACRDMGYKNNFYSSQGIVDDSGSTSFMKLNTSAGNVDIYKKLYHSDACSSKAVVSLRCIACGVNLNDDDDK

[5] = target: T1, human CTSB (Homo sapiens, UniProt P07858); experiment: biochemical
T1 construct: […]; made in house

[6] = target: T2, human CTSL (Homo sapiens, UniProt P07711); experiment: FRET enzymatic inhibition assay of CTSL (IC50 measurement); type: biochemical
T2 construct: made in house
T2 sequence (P07711 114-333): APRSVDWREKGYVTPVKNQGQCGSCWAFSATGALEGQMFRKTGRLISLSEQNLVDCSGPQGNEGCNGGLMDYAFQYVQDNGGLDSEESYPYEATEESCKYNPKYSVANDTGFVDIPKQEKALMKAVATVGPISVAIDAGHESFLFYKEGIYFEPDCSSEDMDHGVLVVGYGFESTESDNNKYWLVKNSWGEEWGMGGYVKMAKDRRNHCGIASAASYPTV

[7] = 0.0762939 nM, rep1-rep4, 7.62939e-05 µM
[8] = 1.2207 nM, rep1-rep4, 0.0012207 µM
[9] = 156.25 nM, rep1-rep4, 0.15625 µM
[10] = substrate Cbz-Phe-Arg-AMC, pH 5.5, mean ± SD, four replicates

In the case of `CN(C)C(=O)COC(=O)Cc1ccc(OC(=O)c2ccc(NC(=N)N)cc2)cc1` [Camostat], the Cytotoxicity ([1]; 0.0128 μM) is reported as 0.76% and 0.62% and 0.69%, the Cytotoxicity ([1]; 0.064 μM) is reported as 2.27% and 2.13% and 2.46% and the Cytotoxicity ([1]; 8 μM) is reported as 7.46% and 7.33% and 7.34%. The Cytotoxicity ([1]; 40 μM) was 10.06% and 10.11% and 10.29%, the Cytotoxicity ([1]; 200 μM) was 58.17% and 58.19% and 58.30% and the Cytotoxicity ([1]; 1000 μM) was 96.27% and 96.26% and 96.22%. For the same compound, the Virus titer ([2]; Camostat 1.1 μM) was 7460 TCID50/ml and 6320 TCID50/ml and 12600 TCID50/ml, the Virus titer ([2]; Camostat 3.3 μM) was 26200 TCID50/ml and 15900 TCID50/ml and 20000 TCID50/ml and the CC50 [3] was 173 µM. The “Inhibition: TMPRSS2” value ([4]; 38.15 pM) was 2.63% and 1.07% and 2.97% and 3.20%, the “Inhibition: TMPRSS2” value ([4]; 76.29 pM) was 3.24% and 1.14% and 2.29% and 3.03% and the “Inhibition: TMPRSS2” value ([4]; 0.000152588 µM) was 4.34% and 0.64% and 2.45% and 2.60%. The “Inhibition: TMPRSS2” value ([4]; 0.000305176 µM) was 3.31% and 1.96% and 3.39% and 4.38%, the “Inhibition: TMPRSS2” value ([4]; 0.000610352 µM) was 3.86% and 5.10% and 6.39% and the “Inhibition: TMPRSS2” value ([4]; 0.0012207 µM) was 7.07% and 9.81% and 8.80%. For the same compound, the “Inhibition: TMPRSS2” value ([4]; 0.00244141 µM) was 17.35% and 18.09% and 18.86%, the “Inhibition: TMPRSS2” value ([4]; 0.00488281 µM) was 31.26% and 30.95% and 31.85% and the “Inhibition: TMPRSS2” value ([4]; 0.00976562 µM) was 51.72% and 52.80% and 52.15%. The “Inhibition: TMPRSS2” value ([4]; 0.0195312 µM) was 77.54% and 78.82% and 77.32%, the “Inhibition: TMPRSS2” value ([4]; 0.0390625 µM) was 94.79% and 94.98% and 94.57% and the “Inhibition: TMPRSS2” value ([4]; 0.078125 µM) was 99.75% and 99.96% and 99.42%. For the same compound, the “Inhibition: TMPRSS2” value ([4]; 0.15625 µM) was 100.65% and 100.24%, the “Inhibition: TMPRSS2” value ([4]; 0.3125 µM) was 99.93% and 100.23% and 99.75% and the “Inhibition: TMPRSS2” value ([4]; 0.625 µM) was 100.21% and 100.53% and 100.35%. For the same compound, the “Inhibition: TMPRSS2” value ([4]; 1.25 µM) was 99.64% and 100.51%, the “Inhibition: TMPRSS2” value ([4]; 2.5 µM) was 100.23% and 100.42% and 100.20% and the “Inhibition: TMPRSS2” value ([4]; 5 µM) was 99.87% and 100.54% and 99.70%. The inhibition at 0.000610352 µM ([4]; read-out: Inhibition: TMPRSS2) was 6.23%, the inhibition at 0.0012207 µM ([4]; read-out: Inhibition: TMPRSS2) was 9.58% and the inhibition at 0.00244141 µM ([4]; read-out: Inhibition: TMPRSS2) was 17.5%. For the same compound, the inhibition at 0.00488281 µM ([4]; read-out: Inhibition: TMPRSS2) was 31.5%, the inhibition at 0.00976562 µM ([4]; read-out: Inhibition: TMPRSS2) was 52.1% and the inhibition at 0.0195312 µM ([4]; read-out: Inhibition: TMPRSS2) was 77.3%. The inhibition at 0.0390625 µM ([4]; read-out: Inhibition: TMPRSS2) was 94.7%, the inhibition at 0.078125 µM ([4]; read-out: Inhibition: TMPRSS2) was 99.7% and the inhibition at 0.15625 µM ([4]; read-out: Inhibition: TMPRSS2) was 100%. It also gave an inhibition at 0.3125 µM ([4]; read-out: Inhibition: TMPRSS2) of 100%, an inhibition at 0.625 µM ([4]; read-out: Inhibition: TMPRSS2) of 100% and an inhibition at 1.25 µM ([4]; read-out: Inhibition: TMPRSS2) of 100%. It also gave an inhibition at 2.5 µM ([4]; read-out: Inhibition: TMPRSS2) of 100% and an inhibition at 5 µM ([4]; read-out: Inhibition: TMPRSS2) of 100%.

In the case of `CCOC(=O)C1OC1C(=O)NC(CC(C)C)C(=O)NCCC(C)C` (stereo not drawn) [E64d], the “Inhibition: CTSB” value [5, 7] is reported as 3.40% and 10.64% and 11.97% and 5.82%, the “Inhibition: CTSB” value [5, 8] is reported as -7.91% and 0.42% and 2.07% and 0.65% and the inhibition at 0.15625 µM ([5]; 156.25 nM, rep1-rep4) is reported as 35.3%. The “Inhibition: CTSB” value [5, 9] was 44.31% and 44.26% and 38.99%, the inhibition at 0.3125 µM ([5]; 312.5 nM, rep1-rep4) was 56.2% and the “Inhibition: CTSB” value ([5]; 312.5 nM, rep1-rep4, 0.3125 µM) was 62.85% and 55.87% and 62.55%. The inhibition at 0.625 µM ([5]; 625 nM, rep1-rep4) was 80.1%, the “Inhibition: CTSB” value ([5]; 625 nM, rep1-rep4, 0.625 µM) was 80.11% and 80.88% and 83.45% and the inhibition at 1.25 µM ([5]; 1250 nM, rep1-rep4) was 98.7%. For the same compound, the “Inhibition: CTSB” value ([5]; 1250 nM, rep1-rep4, 1.25 µM) was 92.94% and 89.91% and 97.77%, the inhibition at 2.5 µM ([5]; 2500 nM, rep1-rep4) was 95.4% and the “Inhibition: CTSB” value ([5]; 2500 nM, rep1-rep4, 2.5 µM) was 107.12% and 95.70% and 101.34%. The inhibition at 5 µM ([5]; 5000 nM, rep1-rep4) was 105%, the “Inhibition: CTSB” value ([5]; 5000 nM, rep1-rep4, 5 µM) was 104.22% and 97.92% and 95.52% and the inhibition at 10 µM ([5]; 10000 nM, rep1-rep4) was 97.9%. The “Inhibition: CTSB” value ([5]; 10000 nM, rep1-rep4, 10 µM) was 102.20% and 95.59% and 101.48%, the IC50 [5, 10] was 0.244 µM and the Cytotoxicity ([1]; 0.017 μM) was 7.45% and 7.84% and 8.16%. The Cytotoxicity ([1]; 0.05 μM) was 11.45% and 12.03% and 11.72%, the Cytotoxicity ([1]; 0.15 μM) was 9.87% and 10.28% and 10.63% and the Cytotoxicity ([1]; 0.46 μM) was 7.15% and 7.70% and 8.12%. The Cytotoxicity ([1]; 4.1 μM) was 1.63% and 2.06% and 2.63%, the Cytotoxicity ([1]; 12.3 μM) was -0.11% and 0.47% and 0.96% and the Cytotoxicity ([1]; 111.1 μM) was -4.79% and -4.14% and -3.55%. The Cytotoxicity ([1]; 333.3 μM) was 12.34% and 13.88% and 14.55%, the Cytotoxicity ([1]; 1000 μM) was 23.12% and 23.57% and 24.06% and the CC50 [3] was > 1000 µM. For the same compound, the “Inhibition: CTSL” value [6, 7] was 2.24% and 3.63% and 1.98% and 0.98%, the “Inhibition: CTSL” value ([6]; 0.152588 nM, rep1-rep4, 0.000152588 µM) was 2.65% and 3.08% and 2.24% and -1.44% and the “Inhibition: CTSL” value ([6]; 0.610352 nM, rep1-rep4, 0.000610352 µM) was 0.22% and 3.41%. For the same compound, the “Inhibition: CTSL” value [6, 8] was 6.37% and 4.18%, the “Inhibition: CTSL” value ([6]; 2.44141 nM, rep1-rep4, 0.00244141 µM) was 4.98% and 7.04% and 0.43% and 3.83% and the “Inhibition: CTSL” value ([6]; 4.88281 nM, rep1-rep4, 0.00488281 µM) was 0.11% and 3.42% and 5.91% and 2.54%. For the same compound, the “Inhibition: CTSL” value ([6]; 9.76562 nM, rep1-rep4, 0.00976562 µM) was 8.11% and 8.13% and 3.91% and 9.27%, the inhibition at 0.0195312 µM ([6]; 19.5312 nM, rep1-rep4) was 10.1% and the “Inhibition: CTSL” value ([6]; 19.5312 nM, rep1-rep4, 0.0195312 µM) was 17.79% and 9.24% and 15.72%. For the same compound, the inhibition at 0.0390625 µM ([6]; 39.0625 nM, rep1-rep4) was 26.6%, the “Inhibition: CTSL” value ([6]; 39.0625 nM, rep1-rep4, 0.0390625 µM) was 23.44% and 25.85% and 26.69% and the inhibition at 0.078125 µM ([6]; 78.125 nM, rep1-rep4) was 45.2%. For the same compound, the “Inhibition: CTSL” value ([6]; 78.125 nM, rep1-rep4, 0.078125 µM) was 44.64% and 44.43% and 46.07%, the inhibition at 0.15625 µM ([6]; 156.25 nM, rep1-rep4) was 72.7% and the “Inhibition: CTSL” value [6, 9] was 70.94% and 71.67% and 71.32%. For the same compound, the inhibition at 0.3125 µM ([6]; 312.5 nM, rep1-rep4) was 93.6%, the “Inhibition: CTSL” value ([6]; 312.5 nM, rep1-rep4, 0.3125 µM) was 93.64% and 93.89% and 93.96% and the inhibition at 0.625 µM ([6]; 625 nM, rep1-rep4) was 99.2%. The “Inhibition: CTSL” value ([6]; 625 nM, rep1-rep4, 0.625 µM) was 99.81% and 99.40% and 99.47%, the inhibition at 1.25 µM ([6]; 1250 nM, rep1-rep4) was 100% and the “Inhibition: CTSL” value ([6]; 1250 nM, rep1-rep4, 1.25 µM) was 100.20% and 99.89%. The inhibition at 2.5 µM ([6]; 2500 nM, rep1-rep4) was 99.2%, the “Inhibition: CTSL” value ([6]; 2500 nM, rep1-rep4, 2.5 µM) was 100.15% and 100.23% and 99.74% and the inhibition at 5 µM ([6]; 5000 nM, rep1-rep4) was 99.9%. The “Inhibition: CTSL” value ([6]; 5000 nM, rep1-rep4, 5 µM) was 100.31% and 99.95%, the inhibition at 10 µM ([6]; 10000 nM, rep1-rep4) was 100% and the “Inhibition: CTSL” value ([6]; 10000 nM, rep1-rep4, 10 µM) was 100.02% and 99.97%. For the same compound, the IC50 [6, 10] was 0.0889 µM.
